The target in this experiment is T1, Indoleamine 2,3-dioxygenase (Homo sapiens, UniProt P14902).
T1 construct: endogenous in cells; host or cells: SKOV-3 (ATCC HTB-77), stimulated with interferon gamma
The experiment in a line: SKOV-3 cellular Indoleamine 2,3-dioxygenase assay. The following applies: SKOV-3 cells, 50 ng/ml Interferon gamma, 100 μM L-Tryptophan, 24 hours, N-Formylkynurenin fluorescence detection; read-out: cell based activity. As to the method: SKOV-3 cellular Indoleamine 2,3-dioxygenase assay
SKOV-3 cells were obtained from the American Type Culture Collection (ATCC® HTB-77™) and maintained in McCoy's medium (Pan Biotech) supplemented with 10% fetal bovine serum and 1% Penicilin/Streptomycin. Cells were kept at 37° C. in a humidified incubator with 5% CO2. For assay preparation, cells were seeded at a density of 2*10^5/ml into black clear bottom 96 well plates in 100 μl medium/well supplemented with 50 ng/ml Interferon gamma (eBioscience, Thermo Fisher Scientific). After cells fully adhered to the plate, dilution series of compounds were added in medium containing additional L-Tryptophan to a final L-Tryptophan concentration of 100 μM. The cells were incubated for 24 hours. Detection of produced N-Formylkynurenin was performed by addition of 3-Methylpiperidine to a final concentration of 200 mM. The plates were sealed and heated to 65° C. for 20 minutes in a water bath. After cooling the fluorescence of each well was recorded with a Victor™X4 (PerkinElmer) plate reader at an emission wavelength of 535 nm and excitation at 405 nm (Tomek et al.; Anal Bioanal Chem (2013) 405:2515-2524., Tomek et al.; Biochim Biophys Acta. 2015 September; 1850(9):1772-80).

pIC50: −log10 of the molar value.

T1 sequence (P14902 whole entry): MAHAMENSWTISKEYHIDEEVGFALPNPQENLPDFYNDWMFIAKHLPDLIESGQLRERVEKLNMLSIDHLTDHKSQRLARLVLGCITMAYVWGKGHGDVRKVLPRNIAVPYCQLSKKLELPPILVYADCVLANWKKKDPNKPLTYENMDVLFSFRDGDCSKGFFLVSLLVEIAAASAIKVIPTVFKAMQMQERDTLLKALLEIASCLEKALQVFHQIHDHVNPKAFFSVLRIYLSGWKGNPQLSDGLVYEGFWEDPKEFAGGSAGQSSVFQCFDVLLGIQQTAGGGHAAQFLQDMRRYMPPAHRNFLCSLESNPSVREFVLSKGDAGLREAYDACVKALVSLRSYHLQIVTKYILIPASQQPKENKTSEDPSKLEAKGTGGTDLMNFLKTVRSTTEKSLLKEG

For the compound `CC(C)(C(=O)O)C(=O)NCCOc1nonc1C(=NO)Nc1ccc(F)c(Cl)c1` [9/11], the pIC50 is under 6.00.

In the case of `O=C(NCCOc1nonc1C(=NO)Nc1ccc(F)c(Cl)c1)C1(O)CC1` [9/12], the pIC50 was 6.00 to 7.00.

As to `O=C(O)c1cccc(C(=O)NCCOc2nonc2C(=NO)Nc2ccc(F)c(Cl)c2)c1` [9/13], the pIC50 is under 6.00.

Consider `NS(=O)(=O)CC(=O)NCCOc1nonc1C(=NO)Nc1ccc(F)c(Cl)c1` [9/14], for which the pIC50 was 6.00 to 7.00.

With `CS(=O)(=O)CC(=O)NCCOc1nonc1C(=NO)Nc1ccc(F)c(Cl)c1` [9/15], the pIC50 is over 7.00.

`CC(C)(C)OC(=O)NC1(C(=O)NCCOc2nonc2C(=NO)Nc2ccc(F)c(Cl)c2)COC1` [9/16]: the pIC50 was 6.00 to 7.00.

As to `CNC(=O)C(=O)NCCOc1nonc1C(=NO)Nc1ccc(F)c(Cl)c1` [9/17], the pIC50 is 6.00 to 7.00.

As for `CC(C)(C)OC(=O)NC1(C(=O)NCCOc2nonc2C(=NO)Nc2ccc(F)c(Cl)c2)CC1(F)F` (stereo not drawn) [9/18], the pIC50 is under 6.00.

With `CN(C)C(=O)C(=O)NCCOc1nonc1C(=NO)Nc1ccc(F)c(Cl)c1` [9/19], the pIC50 was 6.00 to 7.00.

As to `NS(=O)(=O)CC(=O)NCCOc1nonc1C(=NO)Nc1cccc(C(F)(F)F)c1` [9/20], the pIC50 is 6.00 to 7.00.

As to `NS(=O)(=O)CC(=O)NCCOc1nonc1C(=NO)Nc1ccc(F)c(C(F)(F)F)c1` [9/21], the pIC50 is over 7.00.

Consider `CN(CCOc1nonc1C(=NO)Nc1ccc(F)c(Cl)c1)C(=O)CS(N)(=O)=O` [9/22], for which the pIC50 was 6.00 to 7.00.

Turning to `CN1CCN(CCOc2nonc2C(=NO)Nc2ccc(F)c(Cl)c2)CC1` [10/1, N-(3-Chloro-4-fluorophenyl)-N′-hydroxy-4-(2-(4-methylpiperazin-1-yl)ethoxy)-1,2,5-oxadiazole-3-carboximidamide], the pIC50 was 6.00 to 7.00.

As for `CS(=O)(=O)CCCOc1nonc1C(=NO)Nc1ccc(F)c(Cl)c1` [20/1, N-(3-Chloro-4-fluorophenyl)-N′-hydroxy-4-(3-(methylsulfonyl)propoxy)-1,2,5-oxadiazole-3-carboximidamide], the pIC50 was 6.00 to 7.00.

Take `CS(=O)(=O)CCS(=O)(=O)NCCSc1nonc1C(=NO)Nc1ccc(F)c(C(F)F)c1` [100/1, N-(3-(Difluoromethyl)-4-fluorophenyl)-N′-hydroxy-4-((2-((2-(methylsulfonyl)ethyl)sulfonamido)ethyl)thio)-1,2,5-oxadiazole-3-carboximidamide]: the pIC50 was over 7.00.

Regarding `NS(=O)(=O)NCCSc1nonc1C(=NO)Nc1ccc(F)c(Cl)c1` [101/1, N-(3-Chloro-4-fluorophenyl)-N′-hydroxy-4-((2-(sulfamoylamino)ethyl)thio)-1,2,5-oxadiazole-3-carboximidamide], the pIC50 is over 7.00.

On to `Nc1c(NCCSc2nonc2C(=NO)Nc2cccc(C(F)F)c2)c(=O)c1=O` [102/1], for which the pIC50 is over 7.00.

As to `Nc1c(NCCSc2nsnc2C(=NO)Nc2ccc(F)c(Cl)c2)c(=O)c1=O` [102/2], the pIC50 was 6.00 to 7.00.

`CC(C)(O)C(O)C(=O)NCCSc1nonc1C(=NO)Nc1ccc(F)c(C(F)F)c1` (stereo not drawn) [107/1]: the pIC50 was over 7.00.

With `NS(=O)(=O)CC(=O)NCCSc1nonc1C(=NO)Nc1cc(F)cc(C(F)F)c1` [107/2], the pIC50 was over 7.00.

Take `N#Cc1cc(N/C(=N\O)c2nonc2SCCNC(=O)CS(N)(=O)=O)ccc1F` [107/3]: the pIC50 was over 7.00.

As to `NS(=O)(=O)CC(=O)NCCSc1nonc1/C(=N/O)Nc1cccc(Br)c1` [107/4], the pIC50 was over 7.00.

As for `NS(=O)(=O)CC(=O)NCCSc1nonc1/C(=N/O)Nc1cccc(Cl)c1` [107/5], the pIC50 is over 7.00.

As to `CC(C)(O)C(=O)NCCSc1nonc1C(=NO)Nc1ccc(F)c(C(F)F)c1` [107/6], the pIC50 is over 7.00.

For the compound `O=C(NCCSc1nonc1C(=NO)Nc1ccc(F)c(C(F)F)c1)C1(O)CCC1` [107/7], the pIC50 is over 7.00.

In the case of `O=C(NCCSc1nonc1/C(=N/O)Nc1ccc(F)c(C(F)F)c1)C1CS(=O)(=O)C1` [107/8], the pIC50 is over 7.00.

As for `Cc1cccc(NC(=NO)c2nonc2SCCNC(=O)CS(N)(=O)=O)c1` [107/10], the pIC50 was over 7.00.

As to `NS(=O)(=O)CC(=O)NCCSc1nonc1C(=NO)Nc1cccc(CF)c1` [107/11], the pIC50 was over 7.00.

Turning to `N#Cc1cccc(N/C(=N\O)c2nonc2SCCNC(=O)CS(N)(=O)=O)c1` [107/12], the pIC50 was over 7.00.

As to `N#Cc1cccc(NC(=NO)c2nonc2SCCNC(=O)CCS(N)(=O)=O)c1` [107/13], the pIC50 is over 7.00.

Regarding `NS(=O)(=O)CC(=O)NCCSc1nonc1/C(=N/O)Nc1ccc(F)c(Br)c1` [107/14], the pIC50 was over 7.00.

Consider `NS(=O)(=O)CCC(=O)NCCSc1nonc1C(=NO)Nc1cccc(Cl)c1` [107/15], for which the pIC50 was over 7.00.

With `CC(C)(O)CC(=O)NCCSc1nonc1/C(=N/O)Nc1ccc(F)c(C(F)F)c1` [107/16], the pIC50 was over 7.00.

As to `N#CCC(=O)NCCSc1nonc1/C(=N/O)Nc1ccc(F)c(C(F)F)c1` [107/17], the pIC50 is over 7.00.

Regarding `O=C(CCCC[C@@H]1SC[C@@H]2NC(=O)N[C@@H]21)NCCSc1nonc1C(=NO)Nc1ccc(F)c(Cl)c1` [107/18], the pIC50 was over 7.00.

With `CC(C)(O)c1ccc(C(=O)NCCSc2nonc2C(=NO)Nc2ccc(F)c(C(F)(F)F)c2)cc1` [107/19], the pIC50 was over 7.00.

Consider `O=C(NCCSc1nonc1C(=NO)Nc1ccc(F)c(C(F)F)c1)c1ccc(C(O)(C(F)(F)F)C(F)(F)F)cc1` [107/20], for which the pIC50 was 6.00 to 7.00.

In the case of `O=C(CC(O)(C(F)(F)F)C(F)(F)F)NCCSc1nonc1C(=NO)Nc1ccc(F)c(C(F)(F)F)c1` [107/21], the pIC50 is over 7.00.

Take `O=C(NCCSc1nonc1C(=NO)Nc1ccc(F)c(C(F)(F)F)c1)C1=NOC(C(O)(C(F)(F)F)C(F)(F)F)C1` (stereo not drawn) [107/22]: the pIC50 is over 7.00.

For `O=C(NCCSc1nonc1C(=NO)Nc1ccc(F)c(C(F)F)c1)c1ccc(C(F)(F)F)cc1` [107/23], the pIC50 is over 7.00.

Regarding `CS(=O)(=O)c1ccc(C(=O)NCCSc2nonc2C(=NO)Nc2ccc(F)c(C(F)F)c2)cc1` [107/24], the pIC50 was over 7.00.

On to `N#Cc1ccc(C(=O)NCCSc2nonc2C(=NO)Nc2ccc(F)c(C(F)F)c2)cc1` [107/25], for which the pIC50 was over 7.00.

For the compound `O=C(NCCSc1nonc1C(=NO)Nc1ccc(F)c(C(F)F)c1)c1ccc(-n2cnnc2)cc1` [107/26], the pIC50 was 6.00 to 7.00.

`O=C(NCCSc1nonc1C(=NO)Nc1ccc(F)c(C(F)F)c1)c1ccc(-n2cnnn2)cc1` [107/27]: the pIC50 is over 7.00.

`N#CC1(c2ccc(C(=O)NCCSc3nonc3C(=NO)Nc3ccc(F)c(C(F)F)c3)cc2)CC1` [107/28]: the pIC50 was over 7.00.

As to `O=C(NCCSc1nonc1C(=NO)Nc1ccc(F)c(C(F)F)c1)c1ccc(C2(O)COC2)cc1` [107/29], the pIC50 is over 7.00.

`O=C(NCCSc1nonc1C(=NO)Nc1ccc(F)c(C(F)F)c1)c1ccc(C(O)(C(F)(F)F)C(F)(F)F)nc1` [107/30]: the pIC50 was over 7.00.

As to `NS(=O)(=O)CC(=O)NCCSc1nonc1/C(=N/O)Nc1ccc(F)c(C(F)(F)F)c1` [107/31], the pIC50 was over 7.00.

With `CS(=O)(=O)CC(=O)NCCSc1nonc1/C(=N/O)Nc1ccc(F)c(C(F)F)c1` [107/32], the pIC50 is over 7.00.

Turning to `NS(=O)(=O)CC(=O)NCCSc1nonc1C(=NO)Nc1cc(F)c(F)c(C(F)F)c1` [107/33], the pIC50 is over 7.00.

In the case of `NS(=O)(=O)CC(=O)NCCSc1nonc1C(=NO)Nc1cncc(C(F)(F)F)c1` [107/34], the pIC50 was under 6.00.

(Values after patent US11078168B2, “Substituted N-hydroxyamidinoheterocycles as modulators of indoleamine 2,3-dioxygenase” (PHENEX DISCOVERY VERWALTUNGS-GMBH, priority 2016, dated 2021).)
